From EP2085082A1, “Treatment of cognitive decline” (Nutromnia S.R.L., priority 2008, dated 2009)
Where “and” joins values, the source holds several entries; their conditions need not be identical. Equal entries are not always repeated.

Columns and labels:
Type in all cases: in vivo
Goto-Kakizaki rats [1] = assay: Morris water maze, repeated acquisition task, diabetes-related cognitive decline; conditions: 5% dodecanedioic acid pellets for 1 month
Protocol: (§1) In order to evaluate the impact of a diet enriched with dicarboxylic acids on diabetes-related cognitive decline, 10 Wistar rats and 20 Goto-Kakizaki rats of both sexes (half male and half female), aged 4 months were used.
(§2) Rats of the same sex were housed (2-3 per cage) in a colony room with a 12:12 light- dark cycle and ad libitum access to food and water. All behavioral testing occurred during the light phase of the light- dark cycle. Body weight was recorded twice a week.
(§3) Ten Goto-Kakizaki rats (treated group) were selected at random from the initial group of 20 animals and were fed with pellets enriched with 5% dodecanedioic acid. The remaining ten Goto-Kakizaki rats formed the control group and received standard Purina chow. A group of ten Wistar rats was also fed with standard Purina chow, as second control group.
(§4) The dietary supplementation was carried out for 1 month and in the last week of treatment the different groups underwent some tasks in the Morris water maze in order to test their cognitive abilities.
(§5) A large metal pool (180 cm in diameter) filled with opaque water and kept at a constant temperature 24 ± 1°C and a 10 cm platform were used in place discrimination and visual discrimination tasks. A straight plastic alley (10 × 70 cm) was placed in the large pool and used during the straight swim test to estimate swimming ability. A video-camera was used to record the different phases of the experiments.
(§6) The training started on the day after the place discrimination task and consisted of 1 day of training with two sessions of 9 trials each. During the first session, the set of extra maze cues, as well as the location of platform, was different from that on the previous place discrimination task. During the second session, the platform was moved to the new position, with the set of external cues remaining the same. Each session consisted of eight platform trials and one probe trial. The measures of platform and probe trials were the same as in the place discrimination task.
Data are reported as mean ± SD. Comparison between groups was made by repeated-measures ANOVA. […]

Wistar rats [2] = assay: Morris water maze, repeated acquisition task, age-related cognitive decline; conditions: old Wistar rats, 5% dodecanedioic acid pellets for 3 months
Protocol: (§7) In order to evaluate the impact of a diet enriched with dicarboxylic acids on age-related cognitive decline, 20 Wistar rats of both sexes (half male and half female), 4 months old and 23 months old were used.
(§8) Rats of the same sex were housed (2-3 per cage) in a colony room with a 12:12 light- dark cycle and ad libitum access to food and water. All behavioural testing occurred during the light phase of the light- dark cycle. Body weight was recorded twice a week.
(§9) The rats were divided in two groups of 10. The rats of a group (treated group) were fed with pellets enriched with 5% dodecanedioic acid, the rats of the other group being the control group. The dietary supplementation was carried out for 3 months and in the last week of treatment both groups underwent some tasks in the Morris water maze in order to test their cognitive abilities.
as §5, §6
(§10) Data are reported as mean ± SD. Comparison between groups was made by repeated-measures ANOVA. Body weight was used as a covariance to adjust the significance of between-group differences in speed of swimming. P<0.05 was considered as significant.

Wistar rats [3] = assay: Morris water maze, place discrimination task, age-related cognitive decline; conditions: for Swimming time (choice accuracy, time to find the platform): pellets enriched with 5% dodecanedioic acid for 3 months
Protocol: as §7, §8, §9, §5
(§11) Each rat received 1 day of training with three sessions of five platform trials and one probe trial each and a random order of start positions. During the platform trials, the platform was submerged but accessible to the rat, whereas during the probe trials, the platform was collapsed at the bottom of the tank for variable intervals (from 10 to 40 sec) to test the subject's preference for the platform location. The collapsed platform was then returned to its raised position at the end of the probe trial to maintain the same response-reinforcement contingency as in the platform trials. The percentage of time spent in the correct quadrant, the choice accuracy [i.e. the time in seconds to find the platform], and the travelled distance or distance swum to find and climb on the platform [in centimeters] were measured. A a shorter time to find the platform indicate better performance. Higher scores for a percentage of time spent in the correct quadrant reflected better performance. Location of the platform and a set of spatial cues around the tank were changed between the testing periods.
as §10

Goto-Kakizaki rats [4] = assay: Morris water maze, place discrimination task, diabetes-related cognitive decline; conditions: for Travelled distance / time of permanence in the correct quadrant / time to find the platform: Goto-Kakizaki rats
Protocol: as §1, §2, §3, §4, §5, §11, §10

Goto-Kakizaki rats [5] = assay: as above; conditions: average value (mean ± SD, 10 rats), 5% dodecanedioic acid pellets for 1 month, listed as dodecanoic acid
[6] = average value (mean ± SD, 10 rats)
[7] = administered orally, rats, overall conclusion
[8] = individual data per rat, old Wistar rats, 5% dodecanedioic acid pellets for 3 months
[9] = average value (mean ± SD, 10 rats), 5% dodecanedioic acid pellets for 1 month
[10] = individual data per rat, 5% dodecanedioic acid pellets for 1 month

O=C(O)CCCCCCCCCCC(=O)O [C12, dodecanedioic acid]
REPEATED ACQUISITION TASK TRAVELLED DISTANCE (Goto-Kakizaki rats [1]; [6]): 374,10 cm
REPEATED ACQUISITION TASK TRAVELLED DISTANCE (Goto-Kakizaki rats [1]; average value (mean ± SD, 10 rats), listed as dodecanoic acid): 374.1±78.23 cm
REPEATED ACQUISITION TASK TRAVELLED DISTANCE (Goto-Kakizaki rats [1]; individual data per rat): 403 cm and 300 cm (3×) and 370 cm and 359 cm and 291 cm and 444 cm and 498 cm and 476 cm
Travelled distance in repeated trials (Wistar rats [2]; [6]): 327,00 cm
Travelled distance in repeated trials (Wistar rats [2]; average value (mean ± SD, 10 rats), listed as dodecanedioic acid): 327.0±80.4 cm
Travelled distance in repeated trials (Wistar rats [2]; individual data per rat): 400 cm and 300 cm (3×) and 200 cm and 350 cm and 410 cm and 260 cm and 470 cm and 280 cm
age-related decline in various cognitive functions (Wistar rats [3]; [7]): ameliorates
time in the correct quadrant (Wistar rats [3]; average value (10 rats), old Wistar rats, 5% dodecanedioic acid pellets for 3 months): 41,70%
Travelled distance (Wistar rats [3]; average value (mean ± SD, 10 rats), old Wistar rats, 5% dodecanedioic acid pellets for 3 months): 409,50 cm
Travelled distance (Wistar rats [3]; average value (mean ± SD, 10 rats), old Wistar rats, 5% dodecanedioic acid pellets for 3 months, listed as dodecanoic acid): 409.5± 98.6 cm
Swimming time (choice accuracy, time to find the platform) (Wistar rats [3]; average value (mean ± SD, 10 rats), old Wistar rats): 19,59 sec
Swimming time (choice accuracy, time to find the platform) (Wistar rats [3]; average value (mean ± SD, 10 rats), old Wistar rats, listed as dodecanedioic acid): 19.6 ± 1.6 s
Swimming time (Wistar rats [3]; individual data per rat, old Wistar rats fed pellets enriched with 5% dodecanedioic acid for 3 months): 21,8 sec and 18 sec (3×) and 22 sec and 19 sec and 21 sec and 20 sec and 18,5 sec and 19,6 sec
Travelled distance (Wistar rats [3]; [8]): 370 cm and 400 cm and 300 cm (2×) and 580 cm and 450 cm and 520 cm and 350 cm and 325 cm and 500 cm
time in the correct quadrant (Wistar rats [3]; [8]): 35% (2×) and 50% and 45% and 40% and 42% and 44% and 48% and 37% and 41%
time of permanence in the correct quadrant (Wistar rats [3]; mean ± SD as given in text, old Wistar rats, 5% dodecanedioic acid pellets for 3 months): 41.7±5.2 % sec
diabetes-related decline in various cognitive functions (Goto-Kakizaki rats [4]; [7]): ameliorates
Travelled distance (Goto-Kakizaki rats [4]; [9]): 423,60 cm
time of permanence in the correct quadrant (Goto-Kakizaki rats [4]; [9]): 44,00 sec
time to find the platform (Goto-Kakizaki rats [4]; [9]): 23,24 sec
time to find the platform (Goto-Kakizaki rats [4]; average value (mean ± SD, 10 rats), 5% dodecanedioic acid pellets for 1 month, listed as dodecanedioic acid): 23.24 ± 2.81 s
Travelled distance (Goto-Kakizaki rats [4]; [10]): 306 cm and 418 cm and 511 cm (2×) and 368 cm and 354 cm and 477 cm and 541 cm and 326 cm and 424 cm
time of permanence in the correct quadrant (Goto-Kakizaki rats [4]; [10]): 41 sec (2×) and 49 sec and 50 sec and 46 sec and 39 sec and 47 sec and 45 sec and 44 sec and 38 sec
time to find the platform (Goto-Kakizaki rats [4]; individual data per rat, pellets enriched with 5% dodecanedioic acid for 1 month): 18,4 sec and 22,6 sec and 23,4 sec and 25,9 sec and 27 sec and 24 sec and 22,1 sec and 23,5 sec and 26,2 sec and 19,3 sec
Travelled distance (Goto-Kakizaki rats [5]): 423.6±83.82 cm
